Reference: PMC9848300, “Discovery of novel enasidenib analogues targeting inhibition of mutant isocitrate dehydrogenase 2 as antileukaemic agents” (Journal of Enzyme Inhibition and Medicinal Chemistry, 2023)

Legend:
COLO 205 = experiment: NCI 60 antitumor screening (single dose / five doses); type: cell-based; details: Homo sapiens; for inhibition at 10 µM: COLO 205 (colon cancer), single dose 10 μM, read-out: Growth inhibition percentage (GI %)
SN 12C = experiment: as above; type: cell-based; details: Homo sapiens, SN12C; for inhibition at 10 µM: SN 12C (renal cancer), single dose 10 μM, read-out: Growth inhibition percentage (GI %)
MALME-3M = experiment: as above; type: cell-based; details: Homo sapiens; for inhibition at 10 µM: MALME-3M (melanoma), single dose 10 μM, read-out: Growth inhibition percentage (GI %)
EKVX = experiment: as above; type: cell-based; details: Homo sapiens; for inhibition at 10 µM: EKVX (non-small cell lung cancer), single dose 10 μM, read-out: Growth inhibition percentage (GI %)
SR = experiment: as above; type: cell-based; details: Homo sapiens; for inhibition at 10 µM: SR (leukaemia), single dose 10 μM, read-out: Growth inhibition percentage (GI %)
SK-MEL-28 = experiment: as above; type: cell-based; details: Homo sapiens; for inhibition at 10 µM: SK-MEL-28 (melanoma), single dose 10 μM, read-out: Growth inhibition percentage (GI %)
UACC-62 = experiment: as above; type: cell-based; details: Homo sapiens; for inhibition at 10 µM: UACC-62 (melanoma), single dose 10 μM, read-out: Growth inhibition percentage (GI %)
SK-MEL-5 = experiment: as above; type: cell-based; details: Homo sapiens; for inhibition at 10 µM: SK-MEL-5 (melanoma), single dose 10 μM, read-out: Growth inhibition percentage (GI %)
SW-620 = experiment: as above; type: cell-based, human; details: Homo sapiens; for inhibition at 10 µM: SW-620 (colon cancer), single dose 10 μM, read-out: Growth inhibition percentage (GI %)
K-562 = experiment: as above; type: cell-based; details: Homo sapiens, K562; for inhibition at 10 µM: K-562 (leukaemia), single dose 10 μM, read-out: Growth inhibition percentage (GI %)
NCI-H460 = experiment: NCI 60 antitumor screening (single dose); type: cell-based; details: Homo sapiens; NCI-H460 (non-small cell lung cancer), single dose 10 μM; read-out: Growth inhibition percentage (GI %)
Procedure, shortened: (§1)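 Compounds were tested at a single 10 μM dose against the NCI 60-cell-line panel (nine tumour types), in triplicate. Growth was recorded as percent growth (G%) of treated cells, and growth inhibition was taken as GI% = 100 − G%.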

SF-268 = experiment: NCI 60 antitumor screening (single dose); type: cell-based; details: Homo sapiens; SF-268 (CNS cancer), single dose 10 μM; read-out: Growth inhibition percentage (GI %)
Procedure, shortened: as §1

OVCAR-3 = experiment: NCI 60 antitumor screening (single dose); type: cell-based; details: Homo sapiens; OVCAR-3 (ovarian cancer), single dose 10 μM; read-out: Growth inhibition percentage (GI %)
Procedure, shortened: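 NCI-60 one-dose screen. Dose: 10 μM. Lines: 60 human tumour lines, nine tissue types. Output: GI% = 100 − G%.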

SK-MEL-2 = experiment: NCI 60 antitumor screening (single dose / five doses); type: cell-based; details: Homo sapiens; for inhibition at 10 µM: SK-MEL-2 (melanoma), single dose 10 μM, read-out: Growth inhibition percentage (GI %)
IGROV1 = experiment: as above; type: cell-based; details: Homo sapiens, IGROV-1; for inhibition at 10 µM: IGROV1 (ovarian cancer), single dose 10 μM, read-out: Growth inhibition percentage (GI %)
SF-539 = experiment: as above; type: cell-based; details: Homo sapiens; for inhibition at 10 µM: SF-539 (CNS cancer), single dose 10 μM, read-out: Growth inhibition percentage (GI %)
MDA-MB-435 = experiment: as above; type: cell-based; details: Homo sapiens; for inhibition at 10 µM: MDA-MB-435 (melanoma), single dose 10 μM, read-out: Growth inhibition percentage (GI %)
MDA-MB-468 = experiment: as above; type: cell-based; details: Homo sapiens; for inhibition at 10 µM: MDA-MB-468 (breast cancer), single dose 10 μM, read-out: Growth inhibition percentage (GI %)
ACHN = experiment: as above; type: cell-based; details: Homo sapiens; for inhibition at 10 µM: ACHN (renal cancer), single dose 10 μM, read-out: Growth inhibition percentage (GI %)
MOLT-4 = experiment: as above; type: cell-based; details: Homo sapiens; for inhibition at 10 µM: MOLT-4 (leukaemia), single dose 10 μM, read-out: Growth inhibition percentage (GI %)
CCRF-CEM = experiment: as above; type: cell-based; details: Homo sapiens; for inhibition at 10 µM: CCRF-CEM (leukaemia), single dose 10 μM, read-out: Growth inhibition percentage (GI %)
786-0 = experiment: as above; type: cell-based; details: Homo sapiens; for inhibition at 10 µM: 786-0, 786-0 (renal cancer), single dose 10 μM, read-out: Growth inhibition percentage (GI %)
HT29 = experiment: as above; type: cell-based, human; details: Homo sapiens; for inhibition at 10 µM: HT-29, HT29 (colon cancer), single dose 10 μM, read-out: Growth inhibition percentage (GI %)
MDA-MB-231/ATCC = experiment: as above; type: cell-based; details: Homo sapiens; for inhibition at 10 µM: MDA-MB-231/ATCC (breast cancer), single dose 10 μM, read-out: Growth inhibition percentage (GI %)
UACC-257 = experiment: as above; type: cell-based; details: Homo sapiens; for inhibition at 10 µM: UACC-257 (melanoma), single dose 10 μM, read-out: Growth inhibition percentage (GI %)
HOP-92 = experiment: as above; type: cell-based; details: Homo sapiens; for inhibition at 10 µM: HOP-92 (non-small cell lung cancer), single dose 10 μM, read-out: Growth inhibition percentage (GI %)
A498 = experiment: as above; type: cell-based; details: Homo sapiens; for inhibition at 10 µM: A498 (renal cancer), single dose 10 μM, read-out: Growth inhibition percentage (GI %)
UO-31 = experiment: as above; type: cell-based; details: Homo sapiens; for inhibition at 10 µM: UO-31 (renal cancer), single dose 10 μM, read-out: Growth inhibition percentage (GI %)

## CN(C)c1ccc(/C=N/Nc2nc(N/N=C/c3ccc(N(C)C)cc3)nc(N3CCCCC3)n2)cc1 [compound 7g, 4-[(1e)-(2-{4-[(E)-2-{[4-(dimethylamino)phenyl]methylidene}chydrazin-1-yl]-6-(piperidin-1-yl)-1,3,5-triazin-2-yl}hydrazin-1-ylidene)methyl]-N,N-dimethylaniline]
COLO 205
  inhibition at 10 µM: 16.5%
COLO 205; COLO 205, five doses (0.01–100 μM), read-out: GI50
  GI50: 1890 nM
SN 12C
  inhibition at 10 µM: 49.6%
SN 12C; SN 12C, five doses (0.01–100 μM), read-out: GI50
  GI50: 1870 nM
MALME-3M
  inhibition at 10 µM: 167%
MALME-3M; MALME-3M, five doses (0.01–100 μM), read-out: GI50
  GI50: 1860 nM
EKVX
  inhibition at 10 µM: 2.99%
EKVX; EKVX, five doses (0.01–100 μM), read-out: GI50
  GI50: 3130 nM
SR
  inhibition at 10 µM: 114%
SR; SR, five doses (0.01–100 μM), read-out: GI50
  GI50: 360 nM
SK-MEL-28
  inhibition at 10 µM: 58.3%
SK-MEL-28; SK-MEL-28, five doses (0.01–100 μM), read-out: GI50
  GI50: 2000 nM
UACC-62
  inhibition at 10 µM: -0.61%
UACC-62; UACC-62, five doses (0.01–100 μM), read-out: GI50
  GI50: 1840 nM
SK-MEL-5
  inhibition at 10 µM: 13.3%
SK-MEL-5; SK-MEL-5, five doses (0.01–100 μM), read-out: GI50
  GI50: 1730 nM
SW-620; SW-620, SW-620, five doses (0.01–100 μM), read-out: GI50
  GI50: 1890 nM
SW-620
  inhibition at 10 µM: 35.8%
K-562
  inhibition at 10 µM: 96.9%
K-562; K-562, five doses (0.01–100 μM), read-out: GI50
  GI50: 890 nM
NCI-H460
  inhibition at 10 µM: 29.1%
SF-268
  inhibition at 10 µM: -5.33%
OVCAR-3
  inhibition at 10 µM: 34.4%
SK-MEL-2
  inhibition at 10 µM: -10.8%
SK-MEL-2; SK-MEL-2, five doses (0.01–100 μM)
  GI50: 1990 nM
IGROV1
  inhibition at 10 µM: 6.23%
IGROV1; IGROV1, five doses (0.01–100 μM), read-out: GI50
  GI50: 2960 nM
SF-539
  inhibition at 10 µM: 112%
SF-539; SF-539, five doses (0.01–100 μM), read-out: GI50
  GI50: 1990 nM
MDA-MB-435
  inhibition at 10 µM: 39.6%
MDA-MB-435; MDA-MB-435, five doses (0.01–100 μM), read-out: GI50
  GI50: 1940 nM
MDA-MB-468
  inhibition at 10 µM: 63.7%
MDA-MB-468; MDA-MB-468, five doses (0.01–100 μM), read-out: GI50
  GI50: 1640 nM
ACHN
  inhibition at 10 µM: 67.6%
ACHN; ACHN, five doses (0.01–100 μM), read-out: GI50
  GI50: 2680 nM
MOLT-4
  inhibition at 10 µM: 88%
MOLT-4; MOLT-4, five doses (0.01–100 μM), read-out: GI50
  GI50: 2870 nM
CCRF-CEM
  inhibition at 10 µM: 74.2%
CCRF-CEM; CCRF-CEM, five doses (0.01–100 μM), read-out: GI50
  GI50: 1210 nM
786-0
  inhibition at 10 µM: 11.8%
786-0; 786-0, five doses (0.01–100 μM), read-out: GI50
  GI50: 1690 nM
HT29; HT-29, HT29, five doses (0.01–100 μM), read-out: GI50
  GI50: 1760 nM
HT29
  inhibition at 10 µM: 105%
MDA-MB-231/ATCC; MDA-MB-231/ ATCC, five doses (0.01–100 μM), read-out: GI50
  GI50: 1800 nM
MDA-MB-231/ATCC
  inhibition at 10 µM: 31.4%
UACC-257
  inhibition at 10 µM: -4.45%
UACC-257; UACC-257, five doses (0.01–100 μM), read-out: GI50
  GI50: 1830 nM
HOP-92
  inhibition at 10 µM: 16%
HOP-92; HOP-92, five doses (0.01–100 μM), read-out: GI50
  GI50: 1470 nM
A498
  inhibition at 10 µM: -15.1%
A498; A498, five doses (0.01–100 μM), read-out: GI50
  GI50: 1580 nM
UO-31
  inhibition at 10 µM: 19.7%
UO-31; UO-31, five doses (0.01–100 μM), read-out: GI50
  GI50: 1720 nM

## Clc1cccc(/C=N/Nc2nc(N/N=C/c3cccc(Cl)c3Cl)nc(N3CCCCC3)n2)c1Cl [compound 7h, 2,4-Bis[(E)-2-[(2,3-Dichlorophenyl)methylidene]hydrazin-1-yl]-6-(piperidin-1-yl)-1,3,5-triazine]
COLO 205
  inhibition at 10 µM: 9.72%
SN 12C
  inhibition at 10 µM: 19.3%
MALME-3M
  inhibition at 10 µM: 7.49%
EKVX
  inhibition at 10 µM: 11%
SR
  inhibition at 10 µM: 66.6%
SK-MEL-28
  inhibition at 10 µM: 5.78%
UACC-62
  inhibition at 10 µM: 31.7%
SK-MEL-5
  inhibition at 10 µM: 0.02%
SW-620
  inhibition at 10 µM: 57.4%
K-562
  inhibition at 10 µM: 21.9%
NCI-H460
  inhibition at 10 µM: 66.2%
SF-268
  inhibition at 10 µM: 13.6%
OVCAR-3
  inhibition at 10 µM: 91.8%
SK-MEL-2
  inhibition at 10 µM: 2.27%
IGROV1
  inhibition at 10 µM: 20.4%
SF-539
  inhibition at 10 µM: 15.7%
MDA-MB-435
  inhibition at 10 µM: -13.8%
MDA-MB-468
  inhibition at 10 µM: 7.19%
ACHN
  inhibition at 10 µM: 16.3%
MOLT-4
  inhibition at 10 µM: 15.7%
CCRF-CEM
  inhibition at 10 µM: 28.7%
786-0
  inhibition at 10 µM: -1.71%
HT29
  inhibition at 10 µM: 15.7%
MDA-MB-231/ATCC
  inhibition at 10 µM: 15.8%
UACC-257
  inhibition at 10 µM: 10.2%
HOP-92
  inhibition at 10 µM: 13.8%
A498
  inhibition at 10 µM: 7.46%
UO-31
  inhibition at 10 µM: 6.76%
